Laboratory results published in ChEMBL document CHEMBL3885861, “Open TG-GATES”.

Species: Rattus norvegicus
Assay: Open TG-GATES - Regimen: Single
Assay type: toxicity, organism-based, Sprague-Dawley
Parameters: regimen Single, gender Male, age 6 weeks
Details: in vivo, po, 0 mg/kg, route gavage, dose level Control; for APTT / Bas / Eos / Fbg / Hb / Ht / Lym / MCH / MCHC / MCV / Mono / Neu / PT / Plat / RBC / Ret / WBC: tissue Blood; for KIDNEY_L / KIDNEY_R / KIDNEY_TOTAL: tissue Kidney; for LIVER: tissue Liver; for A/G / ALP / ALT / AST / BUN / CRE / Ca / Cl / DBIL / GLC / IP / K / LDH / Na / PL / RALB / TBIL / TC / TG / TP / gamma-GTP: tissue Plasma

CC(C)NNC(=O)c1ccncc1 [IPRONIAZID]
TERMINAL_BW (3 h): 208.3 g
APTT (3 h): 21.1 s
Bas (3 h): 0%
Eos (3 h): 0.6%
Fbg (3 h): 318.8 mg/dL
Hb (3 h): 13.3 g/dL
Ht (3 h): 38.7%
Lym (3 h): 82.2%
MCH (3 h): 21.3 pg
MCHC (3 h): 34.3%
MCV (3 h): 62.1 fL
Mono (3 h): 1.6%
Neu (3 h): 15%
PT (3 h): 16.4 s
Plat (3 h): 108.8 x10_4/uL
RBC (3 h): 624.6 x10_4/ul
Ret (3 h): 7.2%
WBC (3 h): 72.6 x10_2/uL
KIDNEY_L (3 h): 0.9 g
KIDNEY_R (3 h): 0.9 g
KIDNEY_TOTAL (3 h): 1.9 g
LIVER (3 h): 9.7 g
A/G (3 h): 1.3
ALP (3 h): 1798.2 IU/L
ALT (3 h): 41.4 IU/L
AST (3 h): 78.6 IU/L
BUN (3 h): 13.6 mg/dL
CRE (3 h): 0.2 mg/dL
Ca (3 h): 10.8 mg/dL
Cl (3 h): 107.6 meq/L
DBIL (3 h): 0.004 mg/dL
GLC (3 h): 190.2 mg/dL
IP (3 h): 8 mg/dL
K (3 h): 4.1 meq/L
LDH (3 h): 225 IU/L
Na (3 h): 142.4 meq/L
PL (3 h): 136.4 mg/dL
RALB (3 h): 3.1 g/dL
TBIL (3 h): 0.022 mg/dL
TC (3 h): 75.4 mg/dL
TG (3 h): 53.2 mg/dL
TP (3 h): 5.5 g/dL
gamma-GTP (3 h): 1.2 IU/L
TERMINAL_BW (6 h): 208.9 g
APTT (6 h): 23.2 s
Bas (6 h): 0%
Eos (6 h): 0.8%
Fbg (6 h): 305.8 mg/dL
Hb (6 h): 13.3 g/dL
Ht (6 h): 38.6%
Lym (6 h): 79.4%
MCH (6 h): 21.5 pg
MCHC (6 h): 34.3%
MCV (6 h): 62.5 fL
Mono (6 h): 2.4%
Neu (6 h): 16.6%
PT (6 h): 15.6 s
Plat (6 h): 115.7 x10_4/uL
RBC (6 h): 618.8 x10_4/ul
Ret (6 h): 8.7%
WBC (6 h): 96.2 x10_2/uL
KIDNEY_L (6 h): 0.9 g
KIDNEY_R (6 h): 1 g
KIDNEY_TOTAL (6 h): 1.9 g
LIVER (6 h): 9 g
A/G (6 h): 1.3
ALP (6 h): 1530.2 IU/L
ALT (6 h): 38.6 IU/L
AST (6 h): 71.6 IU/L
BUN (6 h): 11.2 mg/dL
CRE (6 h): 0.2 mg/dL
Ca (6 h): 10.6 mg/dL
Cl (6 h): 105.8 meq/L
DBIL (6 h): 0.006 mg/dL
GLC (6 h): 180 mg/dL
IP (6 h): 9.3 mg/dL
K (6 h): 4.3 meq/L
LDH (6 h): 179.8 IU/L
Na (6 h): 141.4 meq/L
PL (6 h): 140.6 mg/dL
RALB (6 h): 3 g/dL
TBIL (6 h): 0.02 mg/dL
TC (6 h): 75.6 mg/dL
TG (6 h): 62.6 mg/dL
TP (6 h): 5.3 g/dL
gamma-GTP (6 h): 1 IU/L
TERMINAL_BW (9 h): 200.8 g
APTT (9 h): 22.6 s
Bas (9 h): 0%
Eos (9 h): 1%
Fbg (9 h): 314.5 mg/dL
Hb (9 h): 12.9 g/dL
Ht (9 h): 37.8%
Lym (9 h): 75.5%
MCH (9 h): 21.4 pg
MCHC (9 h): 34.3%
MCV (9 h): 62.6 fL
Mono (9 h): 2%
Neu (9 h): 20.5%
PT (9 h): 15.7 s
Plat (9 h): 110.7 x10_4/uL
RBC (9 h): 605.5 x10_4/ul
Ret (9 h): 8.4%
WBC (9 h): 86.5 x10_2/uL
KIDNEY_L (9 h): 0.9 g
KIDNEY_R (9 h): 0.9 g
KIDNEY_TOTAL (9 h): 1.9 g
LIVER (9 h): 8.5 g
A/G (9 h): 1.2
ALP (9 h): 1450.5 IU/L
ALT (9 h): 41.2 IU/L
AST (9 h): 76.5 IU/L
BUN (9 h): 10.5 mg/dL
CRE (9 h): 0.2 mg/dL
Ca (9 h): 10.3 mg/dL
Cl (9 h): 107 meq/L
DBIL (9 h): 0.005 mg/dL
GLC (9 h): 178.2 mg/dL
IP (9 h): 9.8 mg/dL
K (9 h): 4 meq/L
LDH (9 h): 172.2 IU/L
Na (9 h): 141.8 meq/L
PL (9 h): 135 mg/dL
RALB (9 h): 3 g/dL
TBIL (9 h): 0.0175 mg/dL
TC (9 h): 81.8 mg/dL
TG (9 h): 39.8 mg/dL
TP (9 h): 5.5 g/dL
gamma-GTP (9 h): 1.2 IU/L
TERMINAL_BW (24 h): 216 g
APTT (24 h): 21.7 s
Bas (24 h): 0%
Eos (24 h): 1%
Fbg (24 h): 333.2 mg/dL
Hb (24 h): 13.5 g/dL
Ht (24 h): 39.1%
Lym (24 h): 77.8%
MCH (24 h): 21.4 pg
MCHC (24 h): 34.4%
MCV (24 h): 62.3 fL
Mono (24 h): 3%
Neu (24 h): 17.6%
PT (24 h): 16.7 s
Plat (24 h): 124 x10_4/uL
RBC (24 h): 627 x10_4/ul
Ret (24 h): 7.8%
WBC (24 h): 113.7 x10_2/uL
KIDNEY_L (24 h): 1 g
KIDNEY_R (24 h): 1 g
KIDNEY_TOTAL (24 h): 1.9 g
LIVER (24 h): 10.3 g
A/G (24 h): 1.2
ALP (24 h): 1519.2 IU/L
ALT (24 h): 39.8 IU/L
AST (24 h): 76.8 IU/L
BUN (24 h): 17.2 mg/dL
CRE (24 h): 0.2 mg/dL
Ca (24 h): 10.9 mg/dL
Cl (24 h): 107.6 meq/L
DBIL (24 h): 0.002 mg/dL
GLC (24 h): 179.6 mg/dL
IP (24 h): 7.6 mg/dL
K (24 h): 4.4 meq/L
LDH (24 h): 287.6 IU/L
Na (24 h): 142.6 meq/L
PL (24 h): 152.8 mg/dL
RALB (24 h): 3.1 g/dL
TBIL (24 h): 0 mg/dL
TC (24 h): 82.2 mg/dL
TG (24 h): 84.4 mg/dL
TP (24 h): 5.6 g/dL
gamma-GTP (24 h): 1.8 IU/L
